Calls of active or inactive are those of the source. The rule behind the calls is not given here.
Assays:
[1] = AUC infinity in 16 hrs fasted ICR mouse at 20 mg/kg, po measured upto 8 hrs by LC-MS/MS analysis; format: ADME, organism-based; details: in vivo
[2] = Metabolic stability in human liver microsomes at 1 uM measured after 30 mins in presence of NADPH regeneration system by LC-MS/MS analysis; format: ADME, Microsome; details: read-out: Stability
[3] = Metabolic stability in mouse liver microsomes at 1 uM measured after 30 mins in presence of NADPH regeneration system by LC-MS/MS analysis; format: ADME, Microsome; details: read-out: Stability
CYP1A2 = molecular target: T1, CYP1A2 (Homo sapiens, UniProt P05177); experiment: Inhibition of CYP1A2 in human liver microsomes at 10 uM using phenacetin as substrate preincubated for 5 mins followed by NADPH generating system addition and measured after 15 mins relative to control; format: ADME, Microsome; details: probe phenacetin, time 20 min
T1 sequence (P05177 whole entry): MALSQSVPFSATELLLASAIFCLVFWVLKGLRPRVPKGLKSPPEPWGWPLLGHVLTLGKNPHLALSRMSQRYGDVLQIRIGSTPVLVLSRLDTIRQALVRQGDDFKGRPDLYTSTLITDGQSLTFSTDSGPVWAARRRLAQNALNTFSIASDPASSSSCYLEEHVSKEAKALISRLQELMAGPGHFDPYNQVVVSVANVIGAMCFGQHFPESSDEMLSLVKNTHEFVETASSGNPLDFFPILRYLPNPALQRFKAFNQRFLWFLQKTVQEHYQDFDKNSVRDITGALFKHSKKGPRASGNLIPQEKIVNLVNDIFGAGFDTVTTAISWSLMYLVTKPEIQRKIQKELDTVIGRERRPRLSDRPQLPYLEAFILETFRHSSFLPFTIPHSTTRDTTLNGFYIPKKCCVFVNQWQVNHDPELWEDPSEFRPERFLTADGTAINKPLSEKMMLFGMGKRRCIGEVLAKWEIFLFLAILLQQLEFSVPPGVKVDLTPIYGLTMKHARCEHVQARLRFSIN

CYP2C9 = CYP2C9 (Homo sapiens, UniProt P11712); experiment: Inhibition of CYP2C9 in human liver microsomes at 10 uM using diclofenac as substrate preincubated for 5 mins followed by NADPH generating system addition and measured after 15 mins relative to control; format: ADME, Microsome; details: probe diclofenac, time 20 min
[4] = Terminal half life in 16 hrs fasted ICR mouse at 2 mg/kg, iv measured upto 8 hrs by LC-MS/MS analysis; format: ADME, organism-based; details: in vivo, read-out: beta t1/2 (converted)
[5] = MRT infinity in 16 hrs fasted ICR mouse at 2 mg/kg, iv measured upto 8 hrs by LC-MS/MS analysis; format: ADME, organism-based; details: in vivo
[6] = AUC last in 16 hrs fasted ICR mouse at 2 mg/kg, iv measured upto 8 hrs by LC-MS/MS analysis; format: ADME, organism-based; details: in vivo
[7] = MRT infinity in 16 hrs fasted ICR mouse at 20 mg/kg, po measured upto 8 hrs by LC-MS/MS analysis; format: ADME, organism-based; details: in vivo
HepG2 [8] = experiment: Downregulation of ACACA gene expression in human HepG2 cells in presence of T0901317 by RNA sequencing analysis; format: functional, cell-based
HepG2 [9] = experiment: Downregulation of ACACA expression level in human HepG2 cells at 5 to 10 uM pretreated with compound for 30 mins followed by T0901317 addition and measured after 12 hrs by RT-qPCR analysis; format: functional, cell-based; details: dose 5-10 µM, time 12.5 hrs
HepG2 [10] = experiment: Downregulation of SREBP-1c expression level in human HepG2 cells at 5 to 10 uM pretreated with compound for 30 mins followed by GW3965 addition and measured after 12 hrs by RT-qPCR analysis; format: functional, cell-based; details: dose 5-10 µM, time 12.5 hrs
HepG2 [11] = experiment: Downregulation of SREBP-1c expression level in nucleus of human HepG2 cells at 10 uM pretreated with compound for 30 mins followed by T0901317 addition and measured after 12 hrs by immunoblot analysis; format: functional, cell-based; details: time 12.5 hrs
HepG2 [12] = experiment: Downregulation of SCD mRNA level in human HepG2 cells at 10 uM pretreated with compound for 30 mins followed by GW2935 addition and measured after 12 hrs by RT-qPCR analysis; format: functional, cell-based; details: time 12.5 hrs
HepG2 [13] = experiment: Downregulation of LXRalpha expression level in human HepG2 cell lysate at 10 uM preincubated with compound for 30 mins followed by T0901317 addition and measured after 24 hrs by immunoblot analysis; format: functional, subcellular; details: time 24.5 hrs
Hepatocyte [14] = experiment: Inhibition of Srebp-1c level in mouse hepatocyte at 10 uM preincubated with compound for 30 mins followed by T0901317 addition and measured after 12 hrs; format: functional, cell-based; details: time 12.5 hrs
Hepatocyte [15] = experiment: Effect on Acox-1 gene expression in mouse hepatocyte; format: functional, cell-based
HepG2 [16] = experiment: Downregulation of acetylated histone H3K9 level in human HepG2 cells at 5 to 10 uM preincubated for 30 mins followed by OSS128167 addition and measured after 12 hrs; format: functional, cell-based; details: dose 5-10 µM, time 12.5 hrs
HepG2 [17] = experiment: Downregulation of ACACA level in human HepG2 cells at 10 uM preincubated for 30 mins followed by OSS128167 addition and measured after 12 hrs; format: functional, cell-based; details: time 12.5 hrs
HepG2 [18] = experiment: Downregulation of SREBP-1 level in human HepG2 cells transfected with SIRT6 SiRNA at 10 uM preincubated for 30 mins followed by T0901317 addition and measured after 12 hrs; format: functional, cell-based; details: time 12.5 hrs
HepG2 [19] = experiment: Downregulation of SREBP-1c expression in human HepG2 cells at 5 uM pretreated with compound for 30 mins followed by T0901317 addition and measured after 12 hrs in presence of compound C by immunoblot analysis; format: functional, cell-based; details: time 12.5 hrs
Mus musculus [20] = experiment: Anti-lipogenic activity against high fat died induced male C57BL/6J mouse obesity model assessed as reduction ALT level in serum at 15 mg/kg, po administered three times per week and measured for 5 weeks; format: functional, organism-based
Mus musculus [21] = experiment: Anti-lipogenic activity against high fat died induced male C57BL/6J mouse obesity model assessed as reduction liver tissue size at 15 mg/kg, po administered three times per week and measured for 5 weeks; format: functional, organism-based
Mus musculus [22] = experiment: Anti-lipogenic activity against high fat died induced male C57BL/6J mouse obesity model assessed as downregulation of Fasn level at 15 mg/kg, po administered three times per week and measured after 5 weeks by RT-qPCT analysis; format: functional, organism-based
Mus musculus [23] = experiment: Anti-lipogenic activity against high fat died induced male C57BL/6J mouse obesity model assessed as downregulation of Acaca-gene level at 15 mg/kg, po administered three times per week and measured after 5 weeks by RT-qPCT analysis; format: functional, organism-based
Mus musculus [24] = experiment: Anti-lipogenic activity against high fat died induced male C57BL/6J mouse obesity model assessed as downregulation of scd level at 15 mg/kg, po administered three times per week and measured after 5 weeks by RT-qPCT analysis; format: functional, organism-based
Mus musculus [25] = experiment: Anti-lipogenic activity against high fat died induced male C57BL/6J mouse obesity model assessed as downregulation of Ccl2 mRNA level at 15 mg/kg, po administered three times per week and measured after 5 weeks by RT-qPCT analysis; format: functional, organism-based
Mus musculus [26] = experiment: Anti-lipogenic activity against high fat died induced male C57BL/6J mouse obesity model assessed as downregulation of Ccl5 mRNA level at 15 mg/kg, po administered three times per week and measured after 5 weeks by RT-qPCT analysis; format: functional, organism-based
Mus musculus [27] = experiment: Anti-lipogenic activity against high fat died induced male C57BL/6J mouse obesity model assessed as downregulation of Cxcl1 mRNA level at 15 mg/kg, po administered three times per week and measured after 5 weeks by RT-qPCT analysis; format: functional, organism-based

CYP2C9, sequence (P11712 whole entry): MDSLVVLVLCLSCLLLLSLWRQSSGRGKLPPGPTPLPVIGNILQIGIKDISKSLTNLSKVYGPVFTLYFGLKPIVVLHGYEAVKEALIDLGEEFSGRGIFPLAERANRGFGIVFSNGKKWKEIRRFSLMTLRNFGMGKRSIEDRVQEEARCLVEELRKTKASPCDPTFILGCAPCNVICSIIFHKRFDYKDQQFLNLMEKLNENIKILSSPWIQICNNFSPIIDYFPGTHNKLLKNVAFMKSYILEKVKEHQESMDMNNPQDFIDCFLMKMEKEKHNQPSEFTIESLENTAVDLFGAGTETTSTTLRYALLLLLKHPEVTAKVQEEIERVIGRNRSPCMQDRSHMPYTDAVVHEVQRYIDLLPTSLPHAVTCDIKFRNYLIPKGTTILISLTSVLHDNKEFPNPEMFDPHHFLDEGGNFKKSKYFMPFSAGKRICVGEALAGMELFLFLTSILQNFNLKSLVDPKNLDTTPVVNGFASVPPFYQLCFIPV

AUC(0-inf) [1]: 2890 ng·h/mL | remaining at 0.5 h, 1 µM [2]: 34.2% | remaining at 0.5 h, 1 µM [3]: 46.9% | inhibition at 0.25 h, 10 µM (CYP1A2): 98% | inhibition at 0.25 h, 10 µM (CYP2C9): 60.5% | half-life [4]: 84 min | MRT inf [5]: 1.3 h | AUC(0-t) at 8 h [6]: 2370 ng·h/mL | MRT inf [7]: 1.6 h
Compound: COc1ccccc1Nc1c(N[C@H]2CC[C@H](Oc3ccc([N+](=O)[O-])cc3)CC2)c(=O)c1=O
Activity (HepG2 [8]): Active | Activity (HepG2 [9]): Active | Activity (HepG2 [10]): Active | Activity (HepG2 [11]): Active | Activity (HepG2 [12]): Active | Activity (HepG2 [13]): Active | inhibition (Hepatocyte [14]): Active | Activity (Hepatocyte [15]): inactive | Activity (HepG2 [16]): inactive | Activity (HepG2 [17]): inactive | Activity (HepG2 [18]): inactive | Activity (HepG2 [19]): inactive | Activity (Mus musculus [20]): Active | Activity (Mus musculus [21]): Active | Activity (Mus musculus [22]): Active | Activity (Mus musculus [23]): Active | Activity (Mus musculus [24]): Active | Activity (Mus musculus [25]): Active | Activity (Mus musculus [26]): Active | Activity (Mus musculus [27]): Active

From ChEMBL document CHEMBL6120940, “Discovery of N-Aryl-N'-[4-(aryloxy)cyclohexyl]squaramide-Based Inhibitors of LXR/SREBP-1c Signaling Pathway Ameliorating Steatotic Liver Disease: Navigating the Role of SIRT6 Activation” (J Med Chem, 2024)
